One series deals with CRL 5803. Description: sensitivity to killing by 2-deoxyglucose. The class given is cell-based, human. The settings on record: up to 20 mM 2-DG. The procedure: (§1) The glucose requirements of CRL 5803 was also determined and compared to the HTB10 and CRL5816 cell lines.
The subject of the next series is HTB10. As to the kind of experiment: sensitivity to killing by 2-deoxyglucose. The class given is cell-based, human. The protocol:
as §1
(§2) The 2-deoxyglucose sensitivity was tested with the 4 cell lines being screened for CNS use with doses of 2-DG from 1-20 mM, the HTB10 cell line was also included in this screen as a positive control for 2-DG killing. […] However, 2-DG did result in slowed growth, and concentrations producing 50% inhibition (IC50) were calculated (based on a four-parameter fit of the data).

Series [1] relates to four candidate cell lines. As to the kind of experiment: 2-deoxyglucose sensitivity (growth) of cell lines screened for CNS use. It is filed as cell-based, human. The protocol:
as §2

A further series has as its system CRL5816 cells. As to the kind of experiment: sensitivity to killing by 2-deoxyglucose. It is filed as cell-based, human. The settings on record: 10 mM 2-deoxyglucose, 4 days.
A further series deals with CRL 5803 polyclones. Description: Blsd dose-response of growth in BSD-transfected polyclones. The class given is cell-based, human. The settings on record: for IC50 for Blsd-resistant growth: CRL 5803. The source says:
(§3) Each cell line was transfected under conditions optimized for that specific cell line, and with each of three different constructs. Within 2-3 days of transfection the cultures were selected with blasticidin at the appropriate selection concentration identified for that cell line.
(§4) The three plasmid constructs tested differed in the promoter used to control the expression of the BSD gene (commercial plasmids from Invitrogen). At the end of selection (10-14 days) the surviving cells were passaged to establish a B1sd-resistant polyclone. Each Blsd-resistant polyclonal cell line was analyzed for the capacity to grow in Blsd at varying concentrations. The Blsd dose-response curve was plotted (growth vs dose) and the IC50 calculated for each promoter construct. The IC50 was taken to indicate the average BSD enzyme expression and activity level, and to indicate the relative activity of the regulatory elements in each cell line context.

Another series deals with CCL205 polyclones. The description is as above. It is filed as cell-based, human.
Description: as §3, §4

In a further series the test system is CRL1440 polyclones. The series is described as above. The class given is cell-based, human.
Description: as §3, §4

A further series concerns ARPE-19 polyclones. Described as above. The class given is cell-based, human.
Description: as §3, §4

In the next series the test system is ARPE-19. It is filed as cell-based, human. The procedure: (§5) The cell lines were plated in 48 well plates at an appropriate dilution of cells for each cell line to provide for rapid entry into log phase of growth. The various concentrations of the selection drugs were added so that the drugs were present at the initiation of log phase growth and viable cells were determined after 7-10 days of culture. The screening used data for functional mass at the end of the study to express viable cells as a percentage of the vehicle, or no-treatment control wells. […] The % viable cell mass data was plotted, and fitted typically with a four-parameter equation. The fitted equation was used to calculate the IC50 dose. The drugs tested were G418 (inactivated by neomycin phophotransferase, NPT), hygromycin (inactivated by hygromycin phosphotansferse, HPT), blasticidin (inactivated by blasticidin deaminase, BSD), and zeocin (bound by bleomycin binding protein, BBP). These antibiotics were obtained from Invitrogen/Gibco (Invitrogen SA, Barcelona).
(§6) The drugs, G418, Zeocin, hygromycin, and blasticidin were obtained and used as described earlier. The most important aspect of these studies was to identify the concentration needed to kill all non-transfected cells.

A further series deals with CRL1440. The class given is cell-based, human. The protocol:
as §5, §6

Another series has as its system CRL5803. It is filed as cell-based, human. The protocol:
as §5, §6

A further series deals with CCL205. It is filed as cell-based, human. The procedure: as §5, §6
The next series deals with CRL5867. Description: selection drug and ouabain sensitivity screen. It is filed as cell-based, human. The settings on record: resistant if IC50 >1000 μg/ml (G418, hygromycin), ouabain 10^-4 M range. The protocol: (§7) The cell lines were plated in 48 well plates at an appropriate dilution of cells for each cell line to provide for rapid entry into log phase of growth. The various concentrations of the selection drugs were added so that the drugs were present at the initiation of log phase growth and viable cells were determined after 7-10 days of culture. The screening used data for functional mass at the end of the study to express viable cells as a percentage of the vehicle, or no-treatment control wells. Each treatment concentration was based on results for at least 3-4 wells. The % viable cell mass data was plotted, and fitted typically with a four-parameter equation. The fitted equation was used to calculate the IC50 dose. The drugs tested were G418 (inactivated by neomycin phophotransferase, NPT), hygromycin (inactivated by hygromycin phosphotansferse, HPT), blasticidin (inactivated by blasticidin deaminase, BSD), and zeocin (bound by bleomycin binding protein, BBP). These antibiotics were obtained from Invitrogen/Gibco (Invitrogen SA, Barcelona). Cells were considered to be resistant if the IC50 was >1000 μg/ml for G418, hygromycin, and zeocin, or concentrations >20 μg/ml for blasticidin. Although ouabain is not a classical selection drug, the rodent gene for Na—K ATPase shifts the sensitivity into the 10^−4 M range, while human cells are sensitive in the 10^−9 to 10^−6 M range, thus IC50s in the 10^−4 M range were taken to indicate resistance.

In the next series the test system is CRL5808. Description: selection drug and ouabain sensitivity screen. The settings on record: ouabain IC50 in the 10^-4 M range taken as resistance. The class given is cell-based, human. The protocol:
as §7

In a further series the test system is CRL1803. As to the kind of experiment: selection drug and ouabain sensitivity screen. The settings on record: ouabain IC50 in the 10^-4 M range taken as resistance. It is filed as cell-based, human. The procedure: as §7
Series [2] has as its system human cell lines (CCL205, A2058, CRL1440, ARPE-19, CRL 5803). The class given is cell-based.
Description: The newly selected cell types were then screened for r sensitivity to 5-fluorouracil (5-FU). This screening was accomplished by plating the cell lines in 48 well plates, and after overnight attachment adding varying concentrations of 5-FU from 0-500 μM. The growth of the cells was then monitored at 1-2 day intervals with the fluorescent substrate resazurin.

Converted amounts (≈) assume the structure as drawn. A value given as a limit tells only on which side of the number the result lay.

With `O=CC[C@@H](O)[C@H](O)[C@H](O)CO` [2-DG, 2-deoxyglucose], the “sensitivity to killing by 2-deoxyglucose” value in the series with CRL 5803 was “nor was it sensitive to killing”. For the same molecule, the “killing by 2-DG” value is on record as “killed with the lowest concentration” in the series on HTB10 (HTB10 positive control, doses 1-20 mM) and “no killing” in series [1] (doses of 2-DG from 1-20 mM). The IC50 in the series with HTB10 (Homo sapiens, HTB10, read-out: 2-DG concentration for 50% killing) is 600 µM; in series [1] (Homo sapiens, range over the cell lines, four-parameter fit, read-out: concentrations producing 50% inhibition (IC50) of growth), 5000 to 11000 µM. Moreover, in the series on CRL5816 cells, the “viable cells after 2-deoxyglucose” value was “no detectable viable cells”.
As usually defined, the IC90 is the concentration needed for an effect of 90%. In the case of `CN(CC[C@H](N)CC(=O)N[C@H]1C=C[C@H](n2ccc(N)nc2=O)O[C@@H]1C(=O)O)C(=N)N` [Blasticidin], the “IC50 for Blsd-resistant growth” value was 21 µg/mL with CRL 5803 polyclones (CMV promoter-BSD); 3 µg/mL with CRL 5803 polyclones (EF-1α promoter-BSD); 35 µg/mL with CRL 5803 polyclones (UBq promoter-BSD); 0.6 µg/mL in the series with CRL1440 polyclones (CMV promoter-BSD); 5 µg/mL with CRL1440 polyclones (EF-1 promoter polyclones); 21 µg/mL with CRL1440 polyclones (UBq promoter polyclones). The “IC50 for Blsd-resistant growth” value with ARPE-19 polyclones (CMV promoter-BSD) was determined as 12 µg/mL; with ARPE-19 polyclones (EF-1a promoter-BSD), 4.5 µg/mL; with ARPE-19 polyclones (UBq promoter-BSD), 3 µg/mL. In addition, in the series with CRL 5803 polyclones (CRL 5803 control cells transfected with NPT plasmid (no BSD)), the “IC50 for growth in Blsd” value was found to be 1 μg-Blsd/ml. Moreover, the “shift in the inhibitory concentration of Blsd” value in the series on CRL 5803 polyclones (CRL 5803 polyclones, best promoter) worked out at 30 fold; in the series on ARPE-19 polyclones (best promoter), 8 fold. The IC90 with CCL205 polyclones (CMV promoter) was above 3 µg/mL; with CCL205 polyclones (EF-1 and UBq promoter constructs), 0.8 µg/mL (≈ 1.89 µM). In addition, the “growth-based IC50” value with CCL205 polyclones (all three promoter constructs) was determined as 0.6 µg/mL. The “concentration found to kill non-transfected cells” value stood at 3 µg/mL in the series with ARPE-19, 1 µg/mL in the series with CRL1440, 2 µg/mL in the series on CRL5803 and 1 µg/mL in the series on CCL205.
As for `CN[C@@H]1[C@@H](O)[C@@H](O[C@@H]2[C@@H](O)[C@H](O[C@H]3O[C@H]([C@@H](C)O)[C@@H](O)[C@H](O)[C@H]3N)[C@@H](N)C[C@H]2N)OC[C@]1(C)O` [G418], the “resistance or sensitivity to drug” value with CRL5867 is listed as “sensitive to killing”. The “concentration found to kill non-transfected cells” value worked out at 175 µg/mL in the series on ARPE-19, 100 µg/mL in the series with CRL1440, 500 µg/mL in the series on CRL5803 and 75 µg/mL in the series with CCL205.
For `C[C@@H]1O[C@@H](O[C@H]2C[C@@H](O)[C@]3(CO)[C@H]4[C@H](O)C[C@]5(C)[C@@H](C6=CC(=O)OC6)CC[C@]5(O)[C@@H]4CC[C@]3(O)C2)[C@H](O)[C@H](O)[C@H]1O` [ouabain], the “resistance or sensitivity to drug” value with CRL5867 was “resistance”; in the series on CRL5808, “resistant”; with CRL1803, “resistant”.
With `O=c1ccc2nc3ccc(O)cc3oc-2c1` [resorufin], the “concentration toxic with many cells” value in [2] lay in the range of 1000 to 10000 nM.

Source of the values: patent publication US20090196854A1, “METHODS AND COMPOSITIONS FOR USE OF CRL 5803 CELLS FOR EXPRESSION OF BIOTHERAPEUTICS AND ENCAPSULATED CELL-BASED DELIVERY” (priority 2008, published 2009).
